Assay results as given in US7176281B2 (priority 2003, dated 2007).
Where a SMILES comes first, the peptide text is derived from it.

How the values were obtained:
[1] = test system: Tg197 transgenic mice (chronic inflammatory polyarthritis); test: Tg197 transgenic mouse arthritis model, experiment 1 (5 weeks); assay type: in vivo; settings: for % of total joints, AS (1) / % of total joints, AS (1.5–2): 5 week post-treatment; for % of total at indicated HS scores, HS 2 / % of total at indicated HS scores, HS 3 / % of total at indicated HS scores, HS 4 / Mean HS ± SEM: 5 weeks
Description: The candidate peptide P-NT.II was dissolved in dimethyl sulfoxide (DMSO) at a final concentration of 3 mg/mL. Two sets of experiments were conducted. In Experiment 1 (n=28 Transgenic (Tg197)+7 wild type (wt), peptide-treated animals (Group B) received intra-peritoneal (i.p) injections of 10 mg/kg, thrice weekly for 5 consecutive weeks, while the vehicle controls (Group E) were injected with DMSO (3 mL/kg) only. Non-transgenic (wild type) mice in different groups (C, D) were similarly treated either with the same i.p dose of peptide or DMSO. At the end of the experiment following 5 weeks of peptide injection, each Tg197 mice received a total dose of 1.8 mg of peptide P-NT.II (0.9 μmole).
Disease monitoring was done by gross observations based on body weight measurements and arthritis scoring, which were done twice weekly after treatment until all the animals were sacrificed at 5th week in experiment 1, or at 4th week in experiment 2. Arthritis score (AS) was recorded on both ankle joints, and average scores as shown below were taken: • 0=no arthritis (normal appearance and flexion); • 0.5=onset of arthritis (mild joint swelling); • 1.0=mild arthritis (joint distortion); • 1.5=as above+finger deformation, less strength on flexion; • […]=moderate arthritis (severe swelling, joint deformation, no strength on flexion); • 2.5=as above+finger deformation in paws; • 3.0=heavy arthritis (ankylosis detected on flexion and severely impaired movement).
For histopathological scoring, both hind legs were dissected and fixed in 10% formaldehyde overnight, decalcified in citrate-buffered formic acid for 3 days at 4° C., and processed for light microscopy (LM). • Histopathological score (HS) was evaluated as follows: • 0=no detectable pathology, • 1=hyperplasia of the synovial membrane and presence of polymorphonuclear infiltrates • 2=pannus and fibrous tissue formation and focal subchondrial bone erosion • 3=articular cartilage destruction and bone erosion • 4=articular cartilage destruction and extensive bone erosion.
Anti-inflammatory activity of the candidate peptide P-NT.II was examined as a new treatment option for modulating rheumatoid arthritis (RA) in a transgenic animal model. To evaluate the potential effectiveness of the peptide as prophylaxis against RA, two separate experiments were performed in 4 week-old transgenic (Tg197) mice and non-transgenic wild-type (wt) mice. These transgenic mice (Tg197) express human tumor necrosis factor (TNFα), a cytokine which has been implicated in the pathogenesis of human RA.

[2] = test system: sPLA2; test: Inhibition of sPLA2 activity at fixed concentrations; assay type: biochemical
[3] = molecular target: T1, Group IIA purified human synovial sPLA2 (Homo sapiens, UniProt P14555); test: In vitro inhibition of purified human synovial sPLA2, 3H-labelled E. coli membranes; assay type: biochemical; settings: fixed peptide concentration 5 μM
T1 construct: purchased Cayman, USA
T1 sequence (P14555 21-144): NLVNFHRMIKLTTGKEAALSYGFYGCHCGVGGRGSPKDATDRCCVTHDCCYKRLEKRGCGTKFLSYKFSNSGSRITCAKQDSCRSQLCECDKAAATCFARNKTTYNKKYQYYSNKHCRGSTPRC

[4] = test system: serum sPLA2; test: Serum sPLA2 levels in Tg197 mice, E. coli membrane assay; assay type: in vivo, mouse; settings: 3–4 weeks post-treatment
Description: Serum of transgenic (Tg197) mice and non-transgenic wild type controls were measured for sPLA2 using an Escherichia coli (E. coli) membrane assay as described previously [Eur J Biochem 2002, 269:719–727]. In brief, [^3H] arachidonate-labeled E. coli membrane suspension (5.8 μCi/μmol, Perkin Elmer, USA) was used as substrate, and 25 mM CaCl2-100 mM Tris-HCl (pH 7.5) as assay buffer. The reaction mixture containing substrate (20 μl), and either purified human synovial sPLA2 standard (1–80 ng/ml, Cayman, USA) or serum (10 μl) in a final volume of 250 μl in assay buffer was incubated at 37° C. for 1 h, and the reaction terminated with 750 μl of chilled PBS containing 1% BSA. 500 μl aliquots of the supernatant were then taken to measure the amount of [^3H] arachidonate released from the E. coli membrane using liquid scintillation counting (Beckman LS 6500 Scintillation Counter). The amount of sPLA2 present in the serum was calculated from the standard curve, and is expressed as ng/ml±SEM.
FIG. 12 depicts time course of serum sPLA2 levels. Serum sPLA2 levels were measured with an E. coli membrane assay in blood samples collected from untreated, P-NT.I- and scrambled P-NT.II-treated Tg197 mice at weekly intervals. Values are the mean±SD (n=4/group). […]

[5] = test system: mammalian (human and rat) type IIA sPLA2; assay type: binding
[6] = test system: organotypic hippocampal slice cultures; test: Kainate-induced injury in organotypic hippocampal slice cultures, GluR1 immunoreactivity

With `CC[C@H](C)[C@H](NC(=O)[C@H](Cc1ccc(O)cc1)NC(=O)[C@@H](NC(=O)CNC(=O)[C@H](CC(=O)O)NC(=O)[C@H](Cc1c[nH]c2ccccc12)NC(=O)[C@@H](NC(=O)[C@H](Cc1c[nH]cn1)NC(=O)[C@@H](NC(=O)[C@H](CC(=O)O)NC(=O)[C@@H](NC(=O)[C@H](CCCNC(=N)N)NC(=O)CNC(=O)[C@@H](N)CC(C)C)C(C)C)[C@@H](C)CC)C(C)C)C(C)C)C(=O)N[C@@H](CCCNC(=N)N)C(=O)NCC(=O)N[C@@H](CCCNC(=N)N)C(=O)O` [P-NT.II] (H-LGRVDIHVWDGVYIRGR-OH; N-terminus and C-terminus assumed) as the compound, how does the “% of total joints, AS (1)” value ([1]; 4 M + 3 F, 14 joints) read?
Its value is 50%.

What about the “% of total joints, AS (1.5–2)” value ([1]; 4 M + 3 F, 14 joints) of the same compound?
The value was 50%.

And the “% of total at indicated HS scores, HS 2” value ([1]; 4 M + 3 F, 14 joints)?
The value was 35.7%.

What about the “% of total at indicated HS scores, HS 3” value ([1]; 4 M + 3 F, 14 joints) of the same compound?
The value was 64.3%.

And the “% of total at indicated HS scores, HS 4” value ([1]; 4 M + 3 F, 14 joints)?
Its value is 0%.

What about the “Mean HS ± SEM” value ([1]; 4 M + 3 F, 14 joints) of the same compound?
The value was 2.71 ± 0.15.

What about the “% of total at indicated HS scores, HS 2” value ([1]; 4 M, 8 joints, 10 mg/kg i.p. thrice weekly) of the same compound?
Its value is 62.5%.

And the “% of total joints, AS (1)” value ([1]; 4 M, 8 joints)?
The value was 87%.

What about the “% of total joints, AS (1.5–2)” value ([1]; 4 M, 8 joints) of the same compound?
Its value is 13%.

What about the “% of total at indicated HS scores, HS 3” value ([1]; 4 M, 8 joints) of the same compound?
Its value is 37.5%.

What about the “% of total at indicated HS scores, HS 4” value ([1]; 4 M, 8 joints) of the same compound?
The value was 0%.

What about the “Mean HS ± SEM” value ([1]; 4 M, 8 joints) of the same compound?
Its value is 2.37 ± 0.18.

What about the “effect of peptide on joint damage” value ([1]; females, P>0.05) of the same compound?
Its value is “less evident”.

What about the “histological scores compared with untreated or DMSO-treated groups” value ([1]; male Tg197 mice, P<0.001) of the same compound?
The value was “significantly lower histological scores”.

What about the “histological scores compared with untreated or DMSO-treated mice” value ([1]; males + females, P<0.05) of the same compound?
The value was “significantly lower histological scores”.

And the “inhibition of sPLA2 activity” value ([2]; 6 μM)?
Its value is 80%.

What about the “inhibition of sPLA2 activity” value ([2]; 10 μM) of the same compound?
Its value is 90%.

And the inhibition at 5 µM [3]?
Its inhibition at 5 µM is 55.6%.

And the “circulating sPLA2 compared with untreated mice” value [4]?
The value was “significantly suppressed”.

What about the “competition with labeled P-NT.II for binding to type IIA sPLA2” value [5] of the same compound?
Its value is “inhibited”.

And the “GluR1 immunoreactivity of pyramidal neurons after kainate” value ([6]; 10 μM added before kainate)?
Its value is “significantly prevented the decrease in GluR1 immunoreactivity”.

What about the “protection against kainite lesioned hippocampal slices” value ([6]; 6–10 μM) of the same compound?
Its value is “almost complete protection”.
